From patent US9708311B2, “Benzimidazole derivatives as EP4 antagonists” (BAYER PHARMA AKTIENGESELLSCHAFT, priority 2012, dated 2017)
Where two headings read alike, the source gives them in different places.

What was measured:
human EP4 receptor = human EP4 receptor (Homo sapiens (Human), UniProt P35408); assay: Test for antagonism of the human EP4 receptor signal (cAMP HTRF); assay type: cell-based
Method in brief: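 Antagonism of PGE2-stimulated cAMP formation in hEP4-R cells with IBMX present. After lysis, cAMP measured by competitive TR-FRET (Eu cryptate anti-cAMP antibody vs cAMP-d2), 20 min at room temperature. Read-out is the 665/620 nm emission ratio; antagonism appears as restored FRET signal.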

endometrial lesions = assay: Syngeneic mouse endometriosis model (preventive); assay type: in vivo; conditions: 28 days
Description: The syngeneic induction of endometriosis in mice is a common animal model for testing the efficacy of substances for the treatment of endometriosis. Endometriosis is induced experimentally by transplantation of murine uterus fragments of a donor mouse of the same strain into the abdominal cavity of the recipient mouse. Female mice of the balb/c strain were used. The cycle of the mouse is determined by means of a vaginal smear. Donor animals which are in oestrus are used exclusively. The donor animals are sacrificed and the uterine horns are removed and subsequently cut open longitudinally. From the uteri, using a punch 2 mm bioptates are punched out, which are subsequently sewn into the recipient animal. The recipient animals are anaesthetised and subjected to a laparotomy. During the intervention, 6 uterus punchings of a donor mouse are sewn onto the parietal peritoneum of the recipient mouse. […] After 28 days, the animals are opened up in a final laparotomy and the lesion sizes are determined. The grown lesions are photographically recorded and the area is measured by means of AxioVision Software. […] In the s.c. approach (FIG. 1), the substance according to the invention (Example 4) was tested in 4 different dose schemes and the lesion size was assessed in comparison to the animals treated with vehicle. […]

[1] = tested on: macrophages in the peritoneal fluid; assay: Flow cytometry of peritoneal lavage cells (macrophage activation); assay type: in vivo; conditions: mouse endometriosis model, p.o., vs vehicle control, p<0.001
Description: For the obtainment of the cells from the peritoneum, 3 ml of cold PBS (phosphate buffered saline) were injected into the peritoneum of the dead animal and removed again after gentle massage of the abdomen. The cells from this peritoneal lavage were spun down at 1400 rpm for 2 min and taken up again in 500 μl of PBS containing 2% FCS (fetal calf serum). 100 μl of this cell suspension were used for each stain with different antibody-fluorochrome conjugate mixes. The cells were spun down for this purpose in 96 hole plates again and resuspended in 50 μl of an antibody solution in the 1:300 diluted anti CD11b-Pacific Blue (eBioscience), 1:200 diluted anti F4/80-PE (eBioscience), 1:200 diluted anti Gr1-APC-Cy7 (BD Pharmigen), 1:400 diluted anti CD11c-PE-Cy7 (BD Pharmigen) and 1:400 diluted anti MHCII-FITC (BD Pharmigen) and stored on ice in the dark for 20 min. Subsequently, 150 μl of PBS containing 2% FCS were added and the cells were once again centrifuged down at 1400 rpm for 2 min. The 200 μl of supernatant were discarded and the cells were washed with 200 μl of PBS containing 2% FCS and once again centrifuged off.
Subsequently, they were taken up in 200 μl of PBS containing 2% FCS and 1:5000 diluted 5 mg/ml DAPI (Sigma) and the fluorescence intensity of the individual fluorochromes per cell was measured with a FACS Canto II flow cytometer. […]

Sequence of human EP4 receptor (P35408 whole entry): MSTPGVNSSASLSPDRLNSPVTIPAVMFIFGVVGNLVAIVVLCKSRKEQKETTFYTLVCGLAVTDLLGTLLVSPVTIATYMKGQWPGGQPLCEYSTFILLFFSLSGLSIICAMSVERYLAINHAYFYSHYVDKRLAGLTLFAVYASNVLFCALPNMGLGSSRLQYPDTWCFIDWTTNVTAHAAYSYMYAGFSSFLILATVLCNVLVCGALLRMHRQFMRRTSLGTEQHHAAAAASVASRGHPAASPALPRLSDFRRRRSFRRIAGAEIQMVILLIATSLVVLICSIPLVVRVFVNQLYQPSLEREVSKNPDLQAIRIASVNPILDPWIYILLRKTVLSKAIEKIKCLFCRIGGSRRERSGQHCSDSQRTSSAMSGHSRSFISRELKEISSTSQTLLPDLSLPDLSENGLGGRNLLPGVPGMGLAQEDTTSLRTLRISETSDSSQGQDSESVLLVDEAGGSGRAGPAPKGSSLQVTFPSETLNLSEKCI

## CCn1c2ccccc2c2cc(-c3nc4cc(C(=O)O)ccc4n3CCOC)ccc21 [Example 4, 2-(9-Ethyl-9H-carbazol-3-yl)-1-(2-methoxyethyl)-1H-benzimidazole-5-carboxylic acid]
Human EP4 receptor; antagonism test Example 3.2.1, read-out: IC50 value at the EP4 receptor (antagonism test)
  IC50: ~6 nM
Human EP4 receptor; cells expressing hEP4, PGE2 at EC80 (0.4 nM), cAMP TR-FRET, read-out: Antagonism hEP4 IC50
  IC50: 5.59 nM
Endometrial lesions; p.o., vs control, p<0.01
  reduction of the endometrial lesions, oral administration: significant reduction of the endometrial lesions
Endometrial lesions; s.c., 0.4, 3, 10 and 50 mg/kg/day, vs vehicle
  reduction of the endometrial lesions, subcutaneous administration: significant reduction of the endometrial lesions
[1]
  number of activated macrophages in the peritoneal fluid (FACS): highly significant reduced number of activated macrophages
